Reference: patent publication US6603023B2 (priority 1996, dated 2003)
“And” between values parts separate entries of the source, which are not always exact repeats. Equal entries are not always repeated. Structures can show the parent of a compound that is named as a salt. Where two headings read alike, the source gives them in different places.

Columns and labels:
DC-3F/ADX = experiment: cells; type: cell-based, hamster; settings: DC3F/ADX, Table 3
Outline: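 Cell protein content measured by sulforhodamine B staining after trichloroacetic acid fixation, read at 570 nm; duplicate runs of six to seven concentrations fitted by median-effect analysis. Lines are actinomycin D-resistant DC-3F hamster lung sublines (ADII, ADX), kept under selecting drug in RPMI 1640-10% FBS.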

[1] = tested on: human mammary carcinoma MX-1 xenograft; settings: for Average Body Weight, Day 7: initial weight, first treatment day; for Note: died (mice died/total): male, athymic nude (nu/nu)
Experimental: DMSO was used as a vehicle for epothilones. Each mouse received ≦40 μL DMSO in all experiments.
Athymic nude mice (nu/nu) were used for MX-1 and MCF-7/Adr human mammary carcinoma xenografts. Mice were obtained from Taconic Laboratory Animals and Service (Germantown, N.Y.: outbred, Swiss background).

[2] = high doses: dEpoB 25, EpoB 0.6, Taxol 10, Vinblastine 0.4 mg/kg i.p. Q2D from day 7
[3] = low doses: dEpoB 15, EpoB 0.3, Taxol 5, Vinblastine 0.2 mg/kg i.p. Q2D day 7-15

## CC[C@]1(O)C[C@@H]2CN(CCc3c([nH]c4ccccc34)[C@@](C(=O)OC)(c3cc4c(cc3OC)N(C)[C@H]3[C@@](O)(C(=O)OC)[C@H](OC(C)=O)[C@]5(CC)C=CCN6CC[C@]43[C@@H]65)C2)C1 [Vinblastine, Vinblastine sulfate]
DC-3F/ADX
  IC50: 1070 nM
[1]; 0.2 mg/kg i.p. Q2Dx5 from day 7, day 11
  Average Body Weight Change: +0.6 g
[1]; 0.2 mg/kg i.p. Q2Dx5 from day 7, day 13
  Average Body Weight Change: +1.4 g
[1]; 0.2 mg/kg i.p. Q2Dx5 from day 7, day 15
  Average Body Weight Change: +2.3 g
[1]; 0.2 mg/kg i.p. Q2Dx5 from day 7, day 17
  Average Body Weight Change: +2.9 g
[1]; 0.4 mg/kg i.p. Q2Dx5 from day 7, day 11
  Average Body Weight Change: +0.8 g
[1]; 0.4 mg/kg i.p. Q2Dx5 from day 7, day 13
  Average Body Weight Change: +0.5 g
[1]; 0.4 mg/kg i.p. Q2Dx5 from day 7, day 15
  Average Body Weight Change: +1.9 g
[1]; 0.4 mg/kg i.p. Q2Dx5 from day 7, day 17
  Average Body Weight Change: +2.1 g
[1]; [2]
  Average Tumor Volume (T/C), Day 11: 0.80 T/C
  Average Tumor Volume (T/C), Day 13: 0.56 T/C
  Average Tumor Volume (T/C), Day 15: 0.83 T/C
  Average Tumor Volume (T/C), Day 17: 0.88 T/C
  Average Body Weight, Day 7: 26.4 g
[1]; [3]
  Average Body Weight, Day 7: 25.7 g
  Average Tumor Volume (T/C), Day 11: 0.65 T/C
  Average Tumor Volume (T/C), Day 13: 0.54 T/C
  Average Tumor Volume (T/C), Day 15: 0.56 T/C
  Average Tumor Volume (T/C), Day 17: 0.88 T/C
[1]; mouse, in vivo
  Note: died (mice died/total): 0/7 died
  Average Tumor Size (T/C): 0.88 and 0.65 and 0.54 and 0.56 and 0.80 and 0.83
[1]; outbred, Swiss background, mouse, in vivo
  Note: died (mice died/total): 1/7 died
